Measurements reported in PMC4335062, “Data-Driven Prediction and Design of bZIP Coiled-Coil Interactions” (PLoS Computational Biology, 2015).
Like-named read-outs stand apart in the source and are kept apart here. Where no end group is shown, it is not given here.

Legend:
Assay in all cases: Direct-binding FRET assay
[1] = target: T1, CREB3L1 (Homo sapiens, UniProt Q96BA8)
T1 construct: made in house
T1 sequence (Q96BA8 290-353 limits assumed): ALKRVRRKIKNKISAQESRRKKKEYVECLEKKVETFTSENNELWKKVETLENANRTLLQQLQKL
Description: (§1) The direct binding assay was performed manually in 384-well plates and is similar to a previously described assay. Wells were filled with 20 μL of 1 mM TCEP-HCl. A 4 μM stock of acceptor protein was made fresh in 1 mM TCEP-HCl, and 20 μL was titrated in 2-fold dilutions over the wells. […] The direct-binding FRET data were fit as previously described. Briefly, the Kd of the designed peptide homodimer was experimentally determined and used with previously determined target homodimer Kd values to determine the heterodimer Kd. The homodimer Kd values used for the human bZIPs were from; experiments done by […] et al. used the same protein constructs for the human bZIP proteins, the same buffer conditions, and the same assay. The fitting used a system of ordinary differential equations to describe the concentrations of homo and heterodimers formed by the donor (D) and acceptor (A) as a function of the heterodimer Kd. MATLAB was used to simulate the binding experiment for different Kd values, and the value that gave the best agreement between simulation and experiment was assigned. A minimum 15% change in the donor fluorescence upon titrating the acceptor peptide from 0 to 1000 nM was required for a fit to be attempted. If this minimum was not met, the interaction was classified as “NS” for no signal change. […] These interactions were marked “AS” to indicate anomalous signal. We attributed this to interactions between the peptides, the dyes and the walls of the assay plates at low concentrations. These curves could not be fit, given their unusual shapes at low concentrations of acceptor. For such curves, we removed the first five points and re-fit the data. […] One example of this is increasing concentrations of acceptor causing an increase in donor fluorescence.

[2] = target: T2, CREB3L3 (Homo sapiens, UniProt Q68CJ9)
T2 construct: made in house
T2 sequence (Q68CJ9 243-306 limits assumed): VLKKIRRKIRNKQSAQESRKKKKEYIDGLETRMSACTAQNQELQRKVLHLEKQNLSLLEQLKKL
Description: as §1

[3] = target: T3, NFE2L2 (Homo sapiens, UniProt Q16236); conditions: Kd
T3 construct: made in house
T3 sequence (Q16236 497-560 limits assumed): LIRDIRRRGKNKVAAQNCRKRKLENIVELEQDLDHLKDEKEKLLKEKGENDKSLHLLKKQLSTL
Description: as §1

[4] = target: T4, BATF2 (Homo sapiens, UniProt Q8N1L9); conditions: Kd
T4 construct: made in house
T4 sequence (Q8N1L9 17-80 limits assumed): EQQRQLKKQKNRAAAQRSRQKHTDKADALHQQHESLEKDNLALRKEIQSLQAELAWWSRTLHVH
Description: as §1

[5] = target: T5, BATF3 (Homo sapiens, UniProt Q9NR55); conditions: Kd, mean or single
T5 construct: made in house
T5 sequence (Q9NR55 35-98 limits assumed): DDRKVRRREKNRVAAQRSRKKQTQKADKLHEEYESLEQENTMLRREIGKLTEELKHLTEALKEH
Description: as §1

[6] = target: T6, FOSL1 (Homo sapiens, UniProt P15407)
T6 construct: made in house
T6 sequence (P15407 105-168 limits assumed): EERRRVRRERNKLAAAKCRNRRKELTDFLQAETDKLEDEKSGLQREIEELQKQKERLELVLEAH
Description: as §1

[7] = target: T7, DBP (Homo sapiens, UniProt Q10586); conditions: Kd
T7 construct: made in house
T7 sequence (Q10586 255-318 limits assumed): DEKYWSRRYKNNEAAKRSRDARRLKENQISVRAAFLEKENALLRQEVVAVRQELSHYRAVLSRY
Description: as §1

[8] = target: T8, CREBZF (Homo sapiens, UniProt Q9NS37)
T8 construct: made in house
T8 sequence (Q9NS37 204-267 limits assumed): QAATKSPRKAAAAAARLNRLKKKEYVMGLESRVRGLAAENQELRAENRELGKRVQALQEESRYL
Description: as §1

[9] = target: T9, ATF2 (Homo sapiens, UniProt P15336); conditions: Kd, N-terminal rhodamine design, mean or single
T9 construct: made in house
T9 sequence (P15336 352-415 limits assumed): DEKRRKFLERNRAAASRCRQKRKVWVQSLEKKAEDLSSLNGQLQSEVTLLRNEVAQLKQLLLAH
Description: as §1

[10] = target: T10, BATF (Homo sapiens, UniProt Q16520); conditions: Kd
T10 construct: made in house
T10 sequence (Q16520 26-89 limits assumed): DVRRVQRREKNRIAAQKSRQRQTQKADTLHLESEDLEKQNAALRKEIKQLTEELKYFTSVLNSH
Description: as §1

[11] = 4°C, C-terminal rhodamine design, mean or single
[12] = 4°C, N-terminal rhodamine design, mean or single
[13] = 23°C, C-terminal rhodamine design, mean or single
[14] = 23°C, N-terminal rhodamine design, mean or single
[15] = 37°C, N-terminal rhodamine design, mean or single
[16] = 4°C, C-terminal fluorescein design as donor, TAMRA target titrated
[17] = 23°C, C-terminal fluorescein design as donor, TAMRA target titrated
[18] = 37°C, C-terminal fluorescein design as donor, TAMRA target titrated
[19] = 37°C, C-terminal rhodamine design, mean or single

In the case of “SIAATLEKEEANLEKMNKKLAAEIESLLKEKDKLESVLNYHE [JUN-d1]”, the Kd [1] is reported as > 1000 nM, the Kd [1, 11] is reported as > 1000 nM and the Kd [1, 12] is reported as > 1000 nM. The Kd [1, 13] was > 1000 nM, the Kd [1, 14] was > 1000 nM and the Kd [1, 15] was > 1000 nM. The Kd [2] was > 1000 nM, the Kd [2, 16] was > 1000 nM and the Kd [2, 11] was > 1000 nM. The Kd [2, 12] was > 1000 nM, the Kd [2, 17] was > 1000 nM and the Kd [2, 13] was > 1000 nM. For the same sequence, the Kd [2, 14] was > 1000 nM, the Kd [2, 18] was > 1000 nM and the Kd [2, 15] was > 1000 nM. For the same sequence, the Kd [3, 16] was > 1000 nM, the Kd [3, 11] was > 1000 nM and the Kd [3, 12] was > 1000 nM. The Kd [3, 17] was > 1000 nM, the Kd [3, 13] was > 1000 nM and the Kd [3, 14] was > 1000 nM. For the same sequence, the Kd [3, 18] was > 1000 nM, the Kd [3, 19] was > 5000 nM and the Kd [3, 15] was > 1000 nM. The Kd [4, 16] was > 1000 nM, the Kd [4, 11] was > 5000 nM and the Kd [4, 12] was > 1000 nM. For the same sequence, the Kd [4, 17] was > 1000 nM, the Kd [4, 13] was > 1000 nM and the Kd [4, 14] was > 1000 nM. The Kd [4, 18] was > 1000 nM, the Kd [4, 19] was > 1000 nM and the Kd [4, 15] was > 1000 nM. The Kd ([5]; 4°C, C-terminal rhodamine design) was 362 nM, the Kd ([5]; 4°C, N-terminal rhodamine design) was > 1000 nM and the Kd ([5]; 23°C, C-terminal rhodamine design) was > 5000 nM. The Kd ([5]; 23°C, N-terminal rhodamine design) was > 1000 nM, the Kd ([5]; 37°C, C-terminal rhodamine design) was > 1000 nM and the Kd ([5]; 37°C, N-terminal rhodamine design) was > 1000 nM. For the same sequence, the Kd [6] was > 1000 nM, the Kd [6, 11] was > 1000 nM and the Kd [6, 12] was > 1000 nM. The Kd [6, 13] was > 1000 nM, the Kd [6, 14] was > 1000 nM and the Kd [6, 15] was > 1000 nM. For the same sequence, the Kd [7, 16] was > 1000 nM, the Kd [7, 11] was > 5000 nM and the Kd [7, 12] was > 1000 nM. The Kd [7, 17] was > 1000 nM, the Kd [7, 13] was > 5000 nM and the Kd [7, 14] was > 1000 nM. For the same sequence, the Kd [7, 18] was > 1000 nM, the Kd [7, 19] was > 1000 nM and the Kd [7, 15] was > 1000 nM. The Kd [8] was > 1000 nM, the Kd [8, 16] was > 1000 nM and the Kd [8, 11] was > 1000 nM. For the same sequence, the Kd [8, 12] was > 1000 nM, the Kd [8, 17] was > 1000 nM and the Kd [8, 13] was > 1000 nM. For the same sequence, the Kd [8, 14] was > 1000 nM, the Kd [8, 18] was > 1000 nM and the Kd [8, 15] was > 1000 nM. For the same sequence, the Kd ([9]; 4°C) was 200 to 1000 nM, the Kd ([9]; 23°C) was > 1000 nM and the Kd ([9]; 37°C) was > 1000 nM. For the same sequence, the Kd [10, 16] was > 1000 nM, the Kd [10, 11] was 200 to 1000 nM and the Kd [10, 12] was > 1000 nM. The Kd [10, 17] was > 1000 nM, the Kd [10, 13] was > 1000 nM and the Kd [10, 14] was > 1000 nM. For the same sequence, the Kd [10, 18] was > 1000 nM, the Kd [10, 19] was > 1000 nM and the Kd [10, 15] was > 1000 nM.
